This note sets out measurements from patent publication US20230391785A1, “NITROGEN-CONTAINING HETEROCYCLIC COMPOUND, METHOD FOR PREPARING SAME AND USE OF SAME” (280 Bio, Inc., priority 2021, published 2023).

Holding throughout (type): cell-based
For assay [1], the system named is AGS gastric cancer cell line (KRAS G12D mutation). The assay can be described thus: Proliferation inhibition measured by CTG (CellTiter Glo), AGS. Conditions: CTG, 120 hours incubation. The text has this: (§1) NCI-H358 is a human non-small cell lung cancer cell line with KRAS G12C mutation; PANC-1 and AsPC-1 are pancreatic cancer cell lines with KRAS G12D mutation; AGS is a gastric cancer cell line with KRAS G12D mutation; A427 is a lung cancer cell line with KRAS G12D mutation; THP-1 is a leukemia cell line with NRAS G12D mutation; Hs 578T is a breast cancer cell line with HRAS G12D mutation; SW480 is a colon cancer cell lines with KRAS G12V mutation; A375 is a wild type malignant melanoma cell line. The proliferation inhibitory effect of the compounds on various mutations was evaluated by determining the proliferation inhibitory activity of the compounds on these cell lines.
(§2) The assay was conducted on either 384-well plates or 96-well plates. The procedures are as follows:
(§3) The cell suspensions were added to 384- or 96-well plates (384-well plate: 40 μL; 96-well plate: […]) except for peripheral wells. The plates were incubated in a carbon dioxide incubator overnight. Prepared compounds (10 concentration gradients by serial 3-fold dilution) were added to the wells. The cell plates were incubated in a carbon dioxide incubator for 120 hours. CellTiter Glo reagent (384 well plate: 25 μL; 96 well plate: 100 μL) was added to the 384- or 96-well plates. The plates were shaken for 10 minutes away from light, and incubated for 10 minutes. The plates were read by EnVision system. Inhibition curves were plotted using XLFit and IC50 values were calculated. “IC50>10 μM” is denoted by “*”, “10 μM≥IC50>1 μM” is denoted by “**”, “1 μM≥IC50>100 nM” is denoted by “***”, and “IC50≤100 nM” is denoted by “****”.
(ATP-based viability assays read luminescence as a measure of living cells.)

Assay [2] deals with SW480 colon cancer cell line (KRAS G12V mutation). Nature of the assay: Proliferation inhibition measured by CTG (CellTiter Glo), SW480. Conditions: Homo sapiens, Table 3, 120 hours incubation, class symbol, read-out: IC50 (SW480).
From the text: as §1, §2, §3

Assay [3] deals with A375 wild type malignant melanoma cell line. The assay can be described thus: Proliferation inhibition measured by CTG (CellTiter Glo), A375. Conditions: Homo sapiens, A-375, CTG, 120 hours incubation.
From the text: as §1, §2, §3

Assay [4] has as its system NCI-H358 cells (KRAS G12C mutation). Nature of the assay: Proliferation inhibition measured by CTG (CellTiter Glo), NCI-H358. The note with it: Homo sapiens, 120 hours incubation.
From the text: as §1, §2, §3

Where [5] appears, read: Table 3, class symbol, read-out: IC50 (AGS).
Setting [6] is: Table 3, class symbol, read-out: IC50 (A375).
The mark [7] stands for this setting: Table 3, CTG, class symbol, read-out: IC50 (H358).
[8] abbreviates: Table 1, class symbol, read-out: IC50 (AGS).
[9] abbreviates: Table 1, CTG, class symbol, read-out: IC50 (H358).
Where [10] appears, read: Table 1, class symbol, read-out: IC50 (A375).
Where [11] appears, read: Table 2, read-out: IC50 AGS (G12D).
The mark [12] stands for this setting: Table 2, CTG, read-out: IC50 H358 (G12C).
Where [13] appears, read: Table 2, read-out: IC50 A375 (wide type).

In general, IC50 refers to the midpoint of a concentration-inhibition curve.

Read-outs that look alike come from different tables or passages of the source.

Regarding `C[C@@H]1Cn2cncc2CN1c1nc(OC[C@@H]2CCCN2C)nc2c1CCN(c1cc(OC(=O)C(C)(C)C)cc3cccc(Cl)c13)C2` [Compound 79], the half-inhibitory concentration (IC50) in assay [1] (setting [5]), in assay [2] and in assay [3] (setting [6]) was ≤ 100 nM in each case.

With `CCN1CCC[C@H]1COc1nc2c(c(N3Cc4cncn4C[C@H]3C)n1)CCN(c1cccc3cccc(Cl)c13)C2` [Compound 63], the IC50 is ≤ 100 nM in assay [1] (setting [5]), ≤ 100 nM in assay [4] (setting [7]), ≤ 100 nM in assay [2] and 100 to 1000 nM in assay [3] (setting [6]).

On to `C[C@@H]1Cn2cncc2CN1c1nc(OC[C@@H]2CCCN2C)nc2c1CCN(c1cc(O)cc3ccccc13)C2` [Compound 66], for which the IC50 was ≤ 100 nM in assay [1] (setting [5]), ≤ 100 nM in assay [4] (setting [7]), 100 to 1000 nM in assay [2] and 100 to 1000 nM in assay [3] (setting [6]).

Turning to `Cc1cccc(N)c1C(=O)Oc1cc(N2CCc3c(nc(OC[C@@H]4CCCN4C)nc3N3Cc4c(F)ncn4C[C@H]3C)C2)c2c(Cl)cccc2c1` [Compound 102], the IC50 in assay [1] (setting [5]), in assay [4] (setting [7]), in assay [2] and in assay [3] (setting [6]) was ≤ 100 nM throughout.

On to `C[C@@H]1Cn2cnc(F)c2CN1c1nc(OC[C@@H]2CCCN2C)nc2c1CCN(c1cc(OC(=O)C(C)(C)C)cc3cccc(Cl)c13)C2` [Compound 96], for which the half-inhibitory concentration (IC50) in assay [1] (setting [5]) and in assay [2] was ≤ 100 nM throughout.

Regarding `C[C@@H]1Cn2cnc(F)c2CN1c1nc(OC[C@@H]2CCCN2C)nc2c1CCN(c1cccc3cccc(F)c13)C2` [Compound 106], the IC50 in assay [1] (setting [5]), in assay [4] (setting [7]), in assay [2] and in assay [3] (setting [6]) was ≤ 100 nM in each case.

For `C[C@@H]1Cn2cncc2CN1c1nc(OC[C@@H]2CCCN2C)nc2c1CCN(c1cccc3cccnc13)C2` [Compound 83], the IC50 in assay [1] (setting [5]) is ≤ 100 nM; in assay [4] (setting [7]), ≤ 100 nM; in assay [2], ≤ 100 nM; in assay [3] (setting [6]) it was 100 to 1000 nM.

On to `C[C@@H]1Cn2cncc2CN1c1nc(OC[C@@H]2CCCN2C)nc2c1CCN(c1cccc3ccccc13)C2` [Compound 68], for which the IC50 in assay [1] (setting [5]) was ≤ 100 nM; in assay [4] (setting [7]), ≤ 100 nM; in assay [2] it was ≤ 100 nM; in assay [3] (setting [6]), 100 to 1000 nM.

With `C[C@@H]1Cn2cncc2CN1c1nc(O[C@H]2CCN(C)C2)nc2c1CCN(c1cccc3cccc(Cl)c13)C2` [Compound 71], the IC50 in assay [1] (setting [5]) lay within 100 to 1000 nM; in assay [4] (setting [7]), 100 to 1000 nM; in assay [2], 100 to 1000 nM; in assay [3] (setting [6]), 1000 to 10000 nM.

Consider `C[C@@H]1Cn2cnc(F)c2CN1c1nc(OC[C@@H]2CCCCN2C)nc2c1CCN(c1cc(F)cc3cccc(Cl)c13)C2` [Compound 115], for which the concentration for half-maximal inhibition (IC50) in assay [1] (setting [5]), in assay [4] (setting [7]), in assay [2] and in assay [3] (setting [6]) was ≤ 100 nM in each case.

With `C[C@@H]1Cn2cnc(F)c2CN1c1nc(OC[C@@H]2CCCN2C)nc2c1CCN(c1cc(NC(=O)OC(C)(C)C)cc3cccc(Cl)c13)C2` [Compound 109], the IC50 in assay [1] (setting [5]) is 100 to 1000 nM; in assay [4] (setting [7]), 1000 to 10000 nM; in assay [2], 100 to 1000 nM; in assay [3] (setting [6]) it was 1000 to 10000 nM.

`C[C@@H]1Cn2cnc(F)c2CN1c1nc(OC[C@@H]2CCCN2C)nc2c1CCN(c1cc(N)cc3cccc(Cl)c13)C2` [Compound 110]: the IC50 in assay [1] (setting [5]), in assay [4] (setting [7]), in assay [2] and in assay [3] (setting [6]) was ≤ 100 nM in each case.

Regarding `C[C@@H]1Cn2cnc(F)c2CN1c1nc(OC[C@@H]2CCCN2C)nc2c1CO[C@H](c1cccc3cccc(Cl)c13)C2` [Compound 104], the IC50 in assay [1] (setting [5]), in assay [4] (setting [7]), in assay [2] and in assay [3] (setting [6]) was 100 to 1000 nM throughout.

In the case of `C[C@@H]1Cn2cncc2CN1c1nc(OC[C@@H]2CCCN2C)nc2c1CCN(c1cc(OC(=O)N(C)C)cc3cccc(Cl)c13)C2` [Compound 82], the IC50 in assay [1] (setting [5]) was ≤ 100 nM; in assay [4] (setting [7]), 100 to 1000 nM; in assay [2], 100 to 1000 nM; in assay [3] (setting [6]), 100 to 1000 nM.

As for `CN1CCC[C@H]1COc1nc2c(c(N3CCn4c(cnc4C4CC4)C3)n1)CCN(c1cccc3cccc(Cl)c13)C2` [Compound 53], the IC50 in assay [1] (setting [5]), in assay [4] (setting [7]), in assay [2] and in assay [3] (setting [6]) was 1000 to 10000 nM in each case.

Turning to `C[C@@H]1Cn2cncc2CN1c1nc(O[C@@H]2CCCN(C)C2)nc2c1CCN(c1cccc3cccc(Cl)c13)C2` [Compound 60], the IC50 in assay [1] (setting [5]) was 100 to 1000 nM; in assay [4] (setting [7]), 100 to 1000 nM; in assay [2] it was 100 to 1000 nM; in assay [3] (setting [6]), 1000 to 10000 nM.

With `C[C@@H]1Cn2cncc2CN1c1nc(OC2CN(C)C2)nc2c1CCN(c1cccc3cccc(Cl)c13)C2` [Compound 74], the IC50 in assay [1] (setting [5]) is 100 to 1000 nM; in assay [4] (setting [7]) it was 100 to 1000 nM; in assay [2], 100 to 1000 nM; in assay [3] (setting [6]), 1000 to 10000 nM.

As to `CC[C@@H]1Cn2cncc2CN1c1nc(OC[C@@H]2CCCN2C)nc2c1CCN(c1cccc3cccc(Cl)c13)C2` [Compound 107], the IC50 in assay [1] (setting [5]), in assay [4] (setting [7]), in assay [2] and in assay [3] (setting [6]) was ≤ 100 nM each time.

Regarding `CN1CCC[C@H]1COc1nc2c(c(N3CCn4c(cnc4Br)C3)n1)CCN(c1cccc3cccc(Cl)c13)C2` [Compound 49], the 50% inhibitory concentration (IC50) in assay [1] (setting [5]) lay within 100 to 1000 nM; in assay [4] (setting [7]), 100 to 1000 nM; in assay [2], 1000 to 10000 nM; in assay [3] (setting [6]), 1000 to 10000 nM.

Turning to `C[C@@H]1Cn2cncc2CN1c1nc(OC[C@@H]2CCCCN2C)nc2c1CCN(c1cccc3cccc(Cl)c13)C2` [Compound 64], the IC50 in assay [1] (setting [5]), in assay [4] (setting [7]), in assay [2] and in assay [3] (setting [6]) was ≤ 100 nM in each case.

For the compound `C[C@@H]1Cn2cncc2CN1c1nc(OC[C@H]2CCCN2C)nc2c1CCN(c1cccc3cccc(Cl)c13)C2` [Compound 58], the IC50 in assay [1] (setting [5]) is ≤ 100 nM; in assay [4] (setting [7]), ≤ 100 nM; in assay [2] it was ≤ 100 nM; in assay [3] (setting [6]), 100 to 1000 nM.

Consider `CN1CCC[C@H]1COc1nc2c(c(N3CCn4c(cnc4-c4ccccc4)C3)n1)CCN(c1cccc3cccc(Cl)c13)C2` [Compound 50], for which the IC50 in assay [1] (setting [5]), in assay [4] (setting [7]), in assay [2] and in assay [3] (setting [6]) was 1000 to 10000 nM each time.

With `C[C@@H]1Cn2cnc(F)c2CN1c1nc(OC[C@@H]2CCCCN2C)nc2c1CCN(c1cccc3cccc(Cl)c13)C2` [Compound 99], the IC50 in assay [1] (setting [5]), in assay [4] (setting [7]), in assay [2] and in assay [3] (setting [6]) was ≤ 100 nM in each case.

Turning to `C[C@@H]1Cn2cnc(F)c2CN1c1nc(OC[C@@H]2CCCN2C)nc2c1CCN(c1cc(O)c(Cl)c3cccc(Cl)c13)C2` [Compound 105], the IC50 in assay [1] (setting [5]), in assay [4] (setting [7]), in assay [2] and in assay [3] (setting [6]) was ≤ 100 nM in each case.

As for `CN1CCC[C@H]1COc1nc2c(c(N3CCn4cnc(C5CC5)c4C3)n1)CCN(c1cccc3cccc(Cl)c13)C2` [Compound 40], the IC50 in assay [1] (setting [8]), in assay [4] (setting [9]) and in assay [3] (setting [10]) was 100 to 1000 nM each time.

With `C=Cc1ncc2n1CCN(c1nc(OC[C@@H]3CCCN3C)nc3c1CCN(c1cccc4cccc(Cl)c14)C3)C2` [Comparative compound 2′, reference compound], the IC50 in assay [1] (setting [11]) stood at 1480 nM; in assay [4] (setting [12]) it was 1230 nM; in assay [3] (setting [13]), 1610 nM.

`Cc1ncn2c1CN(c1nc(OC[C@@H]3CCCN3C)nc3c1CCN(c1cccc4cccc(Cl)c14)C3)CC2` [Compound 41]: the IC50 in assay [1] (setting [8]) is ≤ 100 nM; in assay [4] (setting [9]), 100 to 1000 nM; in assay [3] (setting [10]) it was 100 to 1000 nM.

Turning to `CN1CCC[C@H]1COc1nc2c(c(N3CCn4cncc4C3)n1)CCN(c1cc(O)cc3ccccc13)C2` [Compound 43], the IC50 in assay [1] (setting [5]) and in assay [4] (setting [7]) was 100 to 1000 nM throughout.

In the case of `C=Cc1ncc2n1CCN(c1nc(OC[C@@H]3CCCN3C)nc3c1CCN(c1cccc4ccccc14)C3)C2` [Comparative compound 3′, reference compound], the figures for the IC50 in assay [1] (setting [11]), in assay [4] (setting [12]) and in assay [3] (setting [13]) were 1180 nM, 1040 nM and 1500 nM, respectively.
